pIC50, pKi: −log10 of the molar value.
What was measured:
Histone deacetylase 8 = biological target: T1, Histone deacetylase 8 (Homo sapiens, UniProt Q9BY41); assay: Inhibition of recombinant human HDAC8
T1 sequence (Q9BY41 whole entry): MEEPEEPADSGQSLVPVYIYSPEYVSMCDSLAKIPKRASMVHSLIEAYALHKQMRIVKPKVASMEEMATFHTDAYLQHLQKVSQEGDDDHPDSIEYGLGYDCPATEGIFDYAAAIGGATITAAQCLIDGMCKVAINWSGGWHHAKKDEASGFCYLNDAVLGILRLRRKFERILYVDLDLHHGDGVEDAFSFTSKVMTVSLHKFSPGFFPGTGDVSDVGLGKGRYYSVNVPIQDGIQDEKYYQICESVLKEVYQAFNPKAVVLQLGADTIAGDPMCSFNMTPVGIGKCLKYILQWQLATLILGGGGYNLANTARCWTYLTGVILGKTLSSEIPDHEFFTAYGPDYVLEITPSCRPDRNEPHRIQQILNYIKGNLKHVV

[1] = biological target: T2, Protein deacetylase HDAC6 (Homo sapiens, UniProt Q9UBN7); assay: Inhibition of recombinant human HDAC6
T2 sequence (Q9UBN7 whole entry): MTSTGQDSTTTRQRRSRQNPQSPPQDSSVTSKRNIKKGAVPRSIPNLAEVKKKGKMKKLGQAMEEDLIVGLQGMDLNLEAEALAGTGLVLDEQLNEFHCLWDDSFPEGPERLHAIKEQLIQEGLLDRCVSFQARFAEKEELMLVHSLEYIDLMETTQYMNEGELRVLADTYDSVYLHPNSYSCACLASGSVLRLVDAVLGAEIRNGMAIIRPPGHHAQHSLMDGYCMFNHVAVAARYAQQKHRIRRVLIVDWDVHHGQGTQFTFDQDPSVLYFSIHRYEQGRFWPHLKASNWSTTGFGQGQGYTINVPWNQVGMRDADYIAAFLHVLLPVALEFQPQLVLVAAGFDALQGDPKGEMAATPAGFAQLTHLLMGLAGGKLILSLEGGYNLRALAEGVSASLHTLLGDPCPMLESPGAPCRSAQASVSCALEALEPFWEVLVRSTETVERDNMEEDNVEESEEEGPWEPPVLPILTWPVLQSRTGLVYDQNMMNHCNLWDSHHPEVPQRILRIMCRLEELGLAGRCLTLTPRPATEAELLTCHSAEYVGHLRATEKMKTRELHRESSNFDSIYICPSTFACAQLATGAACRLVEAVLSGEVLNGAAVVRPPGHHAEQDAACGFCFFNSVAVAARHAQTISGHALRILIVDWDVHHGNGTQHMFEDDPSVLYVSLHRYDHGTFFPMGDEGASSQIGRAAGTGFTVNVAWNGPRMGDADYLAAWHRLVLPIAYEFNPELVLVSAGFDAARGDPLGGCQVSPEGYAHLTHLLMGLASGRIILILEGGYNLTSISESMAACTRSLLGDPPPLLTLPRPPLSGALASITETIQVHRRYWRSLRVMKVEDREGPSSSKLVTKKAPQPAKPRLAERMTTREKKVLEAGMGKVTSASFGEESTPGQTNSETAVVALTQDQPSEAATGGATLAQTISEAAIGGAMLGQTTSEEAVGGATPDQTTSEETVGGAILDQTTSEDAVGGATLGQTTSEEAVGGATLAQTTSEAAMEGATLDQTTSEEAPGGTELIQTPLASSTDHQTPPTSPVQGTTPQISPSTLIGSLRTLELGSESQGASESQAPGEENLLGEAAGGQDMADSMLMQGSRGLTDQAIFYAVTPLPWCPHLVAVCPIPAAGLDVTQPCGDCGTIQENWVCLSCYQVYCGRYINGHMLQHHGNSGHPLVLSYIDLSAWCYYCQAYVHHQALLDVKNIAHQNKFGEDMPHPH

Histone deacetylase 4 = Histone deacetylase 4 (Homo sapiens, UniProt P56524); assay: Inhibition of recombinant human HDAC4
Sequence of Histone deacetylase 4 (P56524 whole entry): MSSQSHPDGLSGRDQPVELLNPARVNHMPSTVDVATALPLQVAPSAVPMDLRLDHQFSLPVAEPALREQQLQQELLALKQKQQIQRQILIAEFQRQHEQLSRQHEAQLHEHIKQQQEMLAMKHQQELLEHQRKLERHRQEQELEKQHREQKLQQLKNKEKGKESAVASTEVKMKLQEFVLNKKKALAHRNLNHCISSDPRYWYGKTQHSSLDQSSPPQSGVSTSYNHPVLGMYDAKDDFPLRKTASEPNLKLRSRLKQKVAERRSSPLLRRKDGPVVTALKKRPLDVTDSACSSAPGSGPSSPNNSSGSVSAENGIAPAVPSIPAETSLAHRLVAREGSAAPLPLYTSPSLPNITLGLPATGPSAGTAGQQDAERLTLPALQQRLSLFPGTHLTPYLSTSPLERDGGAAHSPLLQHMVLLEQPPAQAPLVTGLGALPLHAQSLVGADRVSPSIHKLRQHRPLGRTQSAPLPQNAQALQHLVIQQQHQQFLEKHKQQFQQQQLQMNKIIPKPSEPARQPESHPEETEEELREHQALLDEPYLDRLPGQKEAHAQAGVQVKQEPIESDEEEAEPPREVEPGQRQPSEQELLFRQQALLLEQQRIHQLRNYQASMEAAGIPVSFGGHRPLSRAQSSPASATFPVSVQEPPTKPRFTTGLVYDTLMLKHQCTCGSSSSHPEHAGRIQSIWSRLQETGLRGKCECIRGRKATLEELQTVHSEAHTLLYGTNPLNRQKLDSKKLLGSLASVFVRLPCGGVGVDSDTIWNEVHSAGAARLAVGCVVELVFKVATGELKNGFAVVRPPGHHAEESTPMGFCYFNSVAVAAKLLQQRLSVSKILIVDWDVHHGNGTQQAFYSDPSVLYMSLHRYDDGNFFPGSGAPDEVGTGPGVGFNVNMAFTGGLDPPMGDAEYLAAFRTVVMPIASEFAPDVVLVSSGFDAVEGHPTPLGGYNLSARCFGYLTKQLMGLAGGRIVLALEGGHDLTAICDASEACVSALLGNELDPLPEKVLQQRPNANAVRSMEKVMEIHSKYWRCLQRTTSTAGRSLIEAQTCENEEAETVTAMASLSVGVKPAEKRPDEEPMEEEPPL

Histone deacetylase 2 = Histone deacetylase 2 (Homo sapiens, UniProt Q92769); assay: Inhibition of recombinant human HDAC2
Sequence of Histone deacetylase 2 (Q92769 whole entry): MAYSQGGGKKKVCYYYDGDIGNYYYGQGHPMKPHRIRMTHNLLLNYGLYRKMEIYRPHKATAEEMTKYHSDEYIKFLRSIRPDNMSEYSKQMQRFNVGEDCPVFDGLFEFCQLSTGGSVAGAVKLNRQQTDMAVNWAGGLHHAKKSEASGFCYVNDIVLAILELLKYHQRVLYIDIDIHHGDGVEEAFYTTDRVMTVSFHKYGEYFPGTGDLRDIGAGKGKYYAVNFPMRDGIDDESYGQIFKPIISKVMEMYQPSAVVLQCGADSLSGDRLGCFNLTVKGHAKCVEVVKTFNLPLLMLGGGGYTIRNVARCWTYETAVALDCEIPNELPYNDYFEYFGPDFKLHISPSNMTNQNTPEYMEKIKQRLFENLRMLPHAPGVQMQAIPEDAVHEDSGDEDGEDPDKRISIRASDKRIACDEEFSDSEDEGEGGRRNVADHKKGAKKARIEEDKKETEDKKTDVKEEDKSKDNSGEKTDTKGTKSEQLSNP

Histone deacetylase [2] = assay: Inhibition of HDAC in human A2780 cells; assay type: cell-based
A2780 = assay: Cytotoxicity against human A2780 cells assessed as reduction in cell viability by MTT assay; assay type: functional, cell-based
Histone deacetylase [3] = assay: Inhibition of HDAC in human Cal27 cells; assay type: cell-based; details: cal-27
CAL-27 = assay: Cytotoxicity against human CAL27 cells assessed as reduction in cell viability by MTT assay; assay type: functional, cell-based

Row | pKi (Histone deacetylase 8) | pKi [1] | pKi (Histone deacetylase 4) | pKi (Histone deacetylase 2) | IC50 (Histone deacetylase [2]) [µM] | IC50 (Histone deacetylase [3]) [µM] | Compound | pIC50 (A2780) | pIC50 (CAL-27)
1 | 4.65 | 6.38 | < 4.00 | 6.43 | 4.24 | 3.36 | Cc1cc(C)cc(C(=O)NOCCCCC(=O)NO)c1 | 5.03 | 5.06
2 | 5.35 | 6.92 | 4.50 | 6.68 | 1.65 | 1.8 | O=C(CCCCCONC(=O)c1cc(Br)cc(Br)c1)NO | 4.99 | 5.44
3 | 4.83 | 7.00 | < 4.00 | 6.24 | 3.79 | 3.77 | O=C(CCCCCONC(=O)c1cc(F)cc(F)c1)NO | 4.86 | 5.10

The next lines start with the compound.

Row | Compound | pKi (Histone deacetylase 8) | pKi [1] | pKi (Histone deacetylase 4) | pKi (Histone deacetylase 2) | IC50 (Histone deacetylase [2]) [µM] | IC50 (Histone deacetylase [3]) [µM] | pIC50 (A2780) | pIC50 (CAL-27)
4 | O=C(CCCCCONC(=O)c1cc(I)cc(I)c1I)NO | 5.00 | 6.48 | < 4.00 | 5.88 | 7.2 | 9.4 | 4.19 | 4.35
5 | O=C(CCCCCONC(=O)c1cc(C(F)(F)F)cc(C(F)(F)F)c1)NO | 5.31 | 6.25 | 4.08 | 6.26 | 11 | 10.56 | 4.52 | 4.80

— ChEMBL document CHEMBL4609999, “Novel alkoxyamide-based histone deacetylase inhibitors reverse cisplatin resistance in chemoresistant cancer cells” (Bioorg Med Chem, 2020)
